Results published in patent publication US20250249006A1, “TREATMENT” (Verona Pharma PLC, priority 2024, published 2025).

Legend:
Assay type in all cases: in vivo
[1] = tested on: patients aged 40-80 years with moderate to severe COPD; test: Clinical studies, ensifentrine vs placebo: quality of life responders (SGRQ −4 units) in patients with low FEV1 response; settings: for Odds in favor of a response, SGRQ (−4 Unit) Responders / Ensifentrine vs. Placebo Odds Ratio, SGRQ (−4 Unit) Responders: logistic regression; for Odds in favor of a response, SGRQ (−4 Unit) Responders / Ensifentrine vs. Placebo Odds Ratio, SGRQ (−4 Unit) Responders / % SGRQ (−4 Unit) Responders / % responders, SGRQ (−4 Units) Responders / Ensifentrine v placebo Odds Ratio, SGRQ (−4 Units) Responders / Odds in favour of response, SGRQ (−4 Units) Responders: pooled mITT; for % SGRQ (−4 Unit) Responders / % responders, SGRQ (−4 Units) Responders: 3 mg BID nebuliser; for % responders, SGRQ (−4 Units) Responders / Ensifentrine v placebo Odds Ratio, SGRQ (−4 Units) Responders / Odds in favour of response, SGRQ (−4 Units) Responders: improvement in morning trough FEV1 less than 40 mL (table line prints <60 mL); for proportion of patients with a clinically important improvement in QoL: over 24 weeks
Experimental: (§1) Clinical studies were conducted to determine the efficacy of ensifentrine in treating COPD compared with placebo. Ensifentrine was administered by nebuliser at a dose of 3 mg twice daily (BID) for 24 weeks. The studies were multi-centre, randomized, double-blind, parallel-group, placebo-controlled trials.
(§2) The study population included patients aged 40-80 years with moderate to severe COPD (FEV1 30%-70% p.n., FEV1/forced vital capacity (FVC) ratio<0.7, with mMRC≥2). The randomization stratified (a) the use of stable background maintenance LAMA or LABA therapy use (approx. 50%. yes or no) and (b) cigarette smoking (current or former). Inhaled corticosteroid (ICS) maintenance therapy was permitted in up to 20% of patients under certain provisions.
(§3) The primary endpoint was change from baseline in average FEV1 area under the curve AUC0-12h post-dose at week 12. Also assessed were COPD symptoms and quality of life (QoL) in patients showing lower responses in terms of lung function, and in particular patients with: (i) improvement in average FEV1 AUC0-12h of less than 100 mL and (ii) improvement in morning trough FEV1 of less than 100 mL, less than 60 mL or less than 40 mL.
COPD symptoms were assessed using Evaluating Respiratory Symptoms (E-RS; EXACT-Respiratory Symptoms, The minimal clinically important difference (MCID) of the E-RS is a total score of −2 units. User Manual (Version 3.0), October 2014) and Transitional Dyspnea Index (TDI; Mahler et al, The MCID of the transition dyspnea index is a total score of one unit. COPD 2005, 2:99-103.) and QoL was assessed using the St. George's Respiratory Questionnaire (SGRQ; Jones, St. George's Respiratory Questionnaire: The MCID of the SGRQ is a total score of −4 units. COPD 2005, 2:75-79.).

[2] = tested on: patients aged 40-80 years with moderate to severe COPD; test: Clinical studies, ensifentrine vs placebo: moderate/severe COPD exacerbations; settings: nominally statistically significant
Experimental: as §1, §2
COPD exacerbations were defined as worsening of 2 or more major symptoms (dyspnea, sputum volume, and sputum purulence) or worsening of any 1 major symptom together with any 1 of the following minor symptoms: sore throat, colds, fever without other cause, and increased cough or wheeze for at least 2 consecutive days. COPD exacerbations were considered to be of moderate severity if treatment with systemic corticosteroids and/or antibiotics was required and were considered to be severe if hospitalization was required.

[3] = tested on: patients aged 40-80 years with moderate to severe COPD; test: Clinical studies, ensifentrine vs placebo: lung function (average FEV1 AUC0-12h)
Experimental: as §1, §2
as §3, with “mL. […]” for “mL.”
Average FEV1 AUC0-12h is defined as area under the curve over 12 hours of the FEV1, divided by 12 hours. […] Morning trough FEV1 is defined as the FEV1 assessed at 11.5 to 12 hours following the prior evening dose.

[4] = average FEV1 AUC0-12h <100 mL at Week 12, Week 12
[5] = average FEV1 AUC0-12h <100 mL at Week 12, Week 24
[6] = morning trough FEV1 <60 mL at Week 6, Week 6
[7] = morning trough FEV1 <60 mL at Week 12, Week 12
[8] = morning trough FEV1 <60 mL at Week 24, Week 24
[9] = morning trough FEV1 <100 mL at Week 6, Week 6
[10] = morning trough FEV1 <100 mL at Week 12, Week 12
[11] = morning trough FEV1 <100 mL at Week 24, Week 24

In the case of `COc1cc2c(cc1OC)-c1c/c(=N\c3c(C)cc(C)cc3C)n(CCNC(N)=O)c(=O)n1CC2` [Ensifentrine, N-(2-{(2E)-9,10-dimethoxy-4-oxo-2-[(2,4,6-trimethylphenyl)imino]-6,7-dihydro-2H-pyrimido[6,1-a]isoquinolin-3(4H)-yl}ethyl)urea], the “Odds in favor of a response, SGRQ (−4 Unit) Responders” value (“Odds in favor of a response, SGRQ” for short) ([1]; average FEV1 AUC0-12h <100 mL at Week 12, Week 6) was 1.10, the “Ensifentrine vs. Placebo Odds Ratio, SGRQ (−4 Unit) Responders” value (“Ensifentrine vs. Placebo Odds Ratio” below) [1, 4] was 1.31 and the “Odds in favor of a response, SGRQ” value [1, 4] was 0.92. For the same compound, the “Ensifentrine vs. Placebo Odds Ratio” value [1, 5] was 1.04, the “Odds in favor of a response, SGRQ” value [1, 5] was 0.95 and the “% SGRQ (−4 Unit) Responders” value ([1]; average FEV1 AUC0-12h <100 mL at Week 12, responders at Week 6) was 45.4%. The “% SGRQ (−4 Unit) Responders” value ([1]; average FEV1 AUC0-12h <100 mL at Week 12, responders at Week 12) was 45.4%, the “% SGRQ (−4 Unit) Responders” value ([1]; average FEV1 AUC0-12h <100 mL at Week 12, responders at Week 24) was 48.5% and the “% responders, SGRQ (−4 Units) Responders” value ([1]; Week 6) was 42.6%. The “Ensifentrine v placebo Odds Ratio, SGRQ (−4 Units) Responders” value (“Ensifentrine v placebo Odds Ratio, SGRQ” for short) ([1]; Week 6) was 1.260, the “Odds in favour of response, SGRQ (−4 Units) Responders” value (“Odds in favour of response, SGRQ” below) ([1]; Week 6) was 0.903 and the “% responders, SGRQ (−4 Units) Responders” value ([1]; Week 12) was 44.7%. The “Ensifentrine v placebo Odds Ratio, SGRQ” value ([1]; Week 12) was 1.316, the “Odds in favour of response, SGRQ” value ([1]; Week 12) was 0.802 and the “% responders, SGRQ (−4 Units) Responders” value ([1]; Week 24) was 48.7%. For the same compound, the “Ensifentrine v placebo Odds Ratio, SGRQ” value ([1]; Week 24) was 1.138, the “Odds in favour of response, SGRQ” value ([1]; Week 24) was 0.797 and the “proportion of patients with a clinically important improvement in QoL” value ([1]; increase in average FEV1 AUC0-12h less than 100 mL at Week 12) was “half”. For the same compound, the “proportion of patients with a clinically important improvement in QoL” value ([1]; increase in morning trough FEV1 less than 100 mL at Week 12) was “half”, the “Ensifentrine vs. Placebo Odds Ratio” value [1, 6] was 1.25 and the “Odds in favor of a response, SGRQ” value [1, 6] was 0.98. For the same compound, the “% SGRQ (−4 Unit) Responders” value ([1]; morning trough FEV1 <60 mL at Week 6, responders at Week 6) was 43.4%, the “Ensifentrine vs. Placebo Odds Ratio” value [1, 7] was 1.28 and the “Odds in favor of a response, SGRQ” value [1, 7] was 0.82. The “% SGRQ (−4 Unit) Responders” value ([1]; morning trough FEV1 <60 mL at Week 12, responders at Week 12) was 45.1%, the “Ensifentrine vs. Placebo Odds Ratio” value [1, 8] was 1.07 and the “Odds in favor of a response, SGRQ” value [1, 8] was 0.79. The “% SGRQ (−4 Unit) Responders” value ([1]; morning trough FEV1 <60 mL at Week 24, responders at Week 24) was 48.2%, the “Ensifentrine vs. Placebo Odds Ratio” value [1, 9] was 1.29 and the “Odds in favor of a response, SGRQ” value [1, 9] was 1.09. The “% SGRQ (−4 Unit) Responders” value ([1]; morning trough FEV1 <100 mL at Week 6, responders at Week 6) was 45.0%, the “Ensifentrine vs. Placebo Odds Ratio” value [1, 10] was 1.34 and the “Odds in favor of a response, SGRQ” value [1, 10] was 0.80. For the same compound, the “% SGRQ (−4 Unit) Responders” value ([1]; morning trough FEV1 <100 mL at Week 12, responders at Week 12) was 46.3%, the “Ensifentrine vs. Placebo Odds Ratio” value [1, 11] was 1.03 and the “Odds in favor of a response, SGRQ” value [1, 11] was 0.77. For the same compound, the “% SGRQ (−4 Unit) Responders” value ([1]; morning trough FEV1 <100 mL at Week 24, responders at Week 24) was 48.1%, the “reduction in moderate/severe exacerbation rate and risk (time to first event) vs placebo” value ([2]; patients with improvement in average FEV1 AUC0-12h less than 100 mL) was 37% and the “reduction in moderate/severe exacerbation rate and risk (time to first event) vs placebo” value ([2]; patients with improvement in morning trough FEV1 less than 100 mL) was “approximately 40%”. The “primary endpoint of average FEV1 (AUC)0-12h” value ([3]; Week 12, 3 mg BID nebuliser vs placebo) was “met” and the “improvement in lung function” value ([3]; all subgroups) was “statistically significant”.
